Here are results for two compounds from patent US20060142308A1, “Synergistic combination comprising roflumilast and formoterol” (Atlanta Pharma AG, priority 2002, published 2006).

The assay deals with ovalbumin (OVA)-sensitized and OVA-challenged Brown Norway rats. In words: Late inflammatory airway reaction in the ovalbumin-sensitized/-challenged Brown-Norway rat (BAL fluid eosinophils, total cells, protein). The class given is in vivo. The note with it: for Mean % Inhibition of Eosinophils: BAL fluid 48 h after OVA challenge; for Mean % Inhibition of Eosinophils / Mean % Inhibition of Protein: drug 1 h before challenge, p.o., Roflumilast 1.0, Formoterol 3.0, combination 1.0 + 3.0 μmol/kg; for Mean % Inhibition of Protein: cell-free BAL fluid 48 h after OVA challenge. Here is the method:
Late Inflammatory Airway Reaction in the Ovalbumin-Sensitized/-Challenged Brown-Norway Rat
Anti-inflammatory activity of Roflumilast and formoterol was determined in ovalbumin (OVA)-sensitized and OVA-challenged Brown Norway rats. Sensitization was done by simultaneous injection of Bordetella pertussis suspension i.p. and OVA/AHG suspension s.c. on day 1, 14 and 21. 28 days after start of sensitization, conscious Brown-Norway rats were challenged by inhalation of the aerosolized OVA solution for 1 h (˜20 ml/h). Non-challenged, only sensitized animals were used as baseline control. The drugs (thoroughly mixed with lactose) or the placebo control (lactose) were administered intratracheally (i.t.) as dry powders 1 h before OVA-challenge. 48 h later, OVA-challenged or non-challenged animals were anaesthetized and bronchoalveolar lavage (BAL) was performed using 3×4 ml BAL buffer per animal. The number of total cells and eosinophils in the BAL fluid, and the concentration of protein in the cell-free BAL fluid were determined. Drug-induced relative changes were calculated and statistically analyzed by the Jonckheere Terpstra test.

For the compound `COc1ccc(CC(C)NCC(O)c2ccc(O)c(NC=O)c2)cc1` (stereo not drawn) [Formoterol], the “Mean % Inhibition of Eosinophils” value is reported as 35% and the “Mean % Inhibition of Protein” value is on record as 46%. Besides, the “effects on total cell and eosinophil influx into alveolar space and protein levels in BAL fluid” value (3 μmol/kg i.t., data failed to reach significance) was “exhibited inhibitory effects”.

For `O=C(Nc1c(Cl)cncc1Cl)c1ccc(OC(F)F)c(OCC2CC2)c1` [Roflumilast], the “Mean % Inhibition of Eosinophils” value is on record as 0% and the “Mean % Inhibition of Protein” value was found to be 15%. Besides, the “effects on cell infiltration and protein accumulation” value (0.3 μmol/kg i.t.) is “did not show any significant effects”.
